One series has as its system COX-2 in RAW264.7 cells. Format: cell-based, murine.
The next series concerns the target T1, mCOX-2 (Mus musculus, UniProt Q05769).
T1 sequence (Q05769 18-604): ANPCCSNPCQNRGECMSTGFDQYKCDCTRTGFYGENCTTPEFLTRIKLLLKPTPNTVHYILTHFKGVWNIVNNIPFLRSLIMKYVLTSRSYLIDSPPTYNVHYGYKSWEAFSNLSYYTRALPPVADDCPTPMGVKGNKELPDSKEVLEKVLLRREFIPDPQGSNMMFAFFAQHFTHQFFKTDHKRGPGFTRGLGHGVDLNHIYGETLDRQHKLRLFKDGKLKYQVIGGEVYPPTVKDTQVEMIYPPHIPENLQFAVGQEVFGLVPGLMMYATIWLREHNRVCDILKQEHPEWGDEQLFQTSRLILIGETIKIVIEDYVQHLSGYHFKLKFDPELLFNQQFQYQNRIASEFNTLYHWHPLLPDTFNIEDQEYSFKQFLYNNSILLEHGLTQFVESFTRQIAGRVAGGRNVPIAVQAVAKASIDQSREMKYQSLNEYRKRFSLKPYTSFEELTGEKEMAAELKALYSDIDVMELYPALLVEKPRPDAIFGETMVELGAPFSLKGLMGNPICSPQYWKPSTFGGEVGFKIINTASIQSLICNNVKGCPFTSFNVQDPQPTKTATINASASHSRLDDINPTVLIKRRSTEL
Put plainly: Enzyme-inhibitor binding kinetics, time-dependent inhibition of purified mCOX-2. Format: biochemical. The following applies: mCOX-2, time-dependent inhibition.

Series [1] in a line: Tissue analysis for defluorination in rat footpads. Format: in vivo, Sprague-Dawley rats. The following applies: compound 7 1 mg/kg i.p., 2 hours post dosing.

In the case of `Cc1ccc(-c2cc(CF)nn2-c2ccc(S(N)(=O)=O)cc2)cc1` [Compound 7], the “Inhibition of COX-2 in intact RAW264.7 cells, in words” value in the series with COX-2 in RAW264.7 cells (activated RAW264.7 cells, prostaglandin production) is listed as “low nanomolar range”. Further, on mCOX-2, the “dissociation rate k−2” value came out at 0.0003 s⁻¹ and the “inactivation rate k2” value was found to be 0.035 s⁻¹. In addition, the “KI, equilibrium constant for initial association (k−1/k1)” value on mCOX-2 (37 °C) worked out at 7.3 ± 1.6 µM. For the same molecule, the “calculated extent of defluorination” value in series [1] (rat footpad, n = 3) is 8.8 ± 5.0%. Further, in series [1] (rat, LC-MS), the “amount in inflamed footpad” value turned out to be 486.3 pmol/g tissue.
As to `COc1ccc2c(c1)c(CC(=O)O)c(C)n2C(=O)c1ccc(Cl)cc1` [Indomethacin, reference compound], the IC50 in the series on COX-2 in RAW264.7 cells (Mus musculus, RAW264.7, 0.5 h, read-out: RAW246.7 Cells IC50 COX-2) was 0.01 µM.

These data come from publication PMC3214660 (Cancer prevention research (Philadelphia, Pa.), 2011).
